# According to PMC12153356, “An antisense oligomer conjugate with unpredicted bactericidal activity against Fusobacterium nucleatum” (mBio, 2025):
# Square brackets hold non-standard residues; d marks the D form. Peptide text beside a SMILES is read from it. * marks the point of attachment. 5TAMRA = CN(C)c1ccc2c(c1)Oc1cc(N(C)C)ccc1C21OC(=O)c2cc(C(=O)*)ccc21; Ahx = NCCCCCC(=O)O; βAla = NCCC(=O)O
# Test system: F. nucleatum subsp. nucleatum ATCC 23726 (FNN23)
# Assay: CPP-TAMRA uptake by confocal laser scanning microscopy (CLSM)
# Type: cell-based, Fusobacterium nucleatum subsp. nucleatum ATCC 23726
# Conditions: 5 µM CPP-TAMRA, FNN23 10^8 CFU/mL in MHB, 37°C, 10, 30 and 60 min, 100 cells from four images, cytoplasmic signal
# Description: To investigate the efficiency of different cell-penetrating peptides, we excluded a flow cytometry approach to quantify penetration efficiency because upon cell fixation, CPPs were reported to bind to cell membranes and remain attached even after multiple washes, which would result in a false-positive penetration signal in flow cytometry ([118]). Thus, we opted for a microscopy-based investigation with lower throughput but discrimination potential between membrane-associated and cytosolic signals. CPPs were coupled to the fluorophore 5(6)-carboxytetramethylrhodamine (TAMRA) by Peps4LS GmbH, and 200 µM stocks were prepared in house. […] The emission was detected at 685–795 nm for FM 4–64 and 570–620 nm for TAMRA. CLSM images were analyzed using ImageJ. To quantify CPP uptake, 100 cells were chosen out of four images per condition using the bright field image and analyzed for cytosolic TAMRA signal by excluding TAMRA-negative cells and TAMRA signal co-localized with the FM 4–64 signal.
smiles,measurement,value
CN(C)c1ccc2c(c1)Oc1cc(N(C)C)ccc1C21OC(=O)c2cc(C(=O)N[C@@H](CCCNC(=N)N)C(=O)NCCCCCC(=O)N[C@@H](CCCNC(=N)N)C(=O)N[C@@H](CCCNC(=N)N)C(=O)NCCCCCC(=O)N[C@@H](CCCNC(=N)N)C(=O)N[C@@H](CCCNC(=N)N)C(=O)NCCCCCC(=O)N[C@@H](CCCNC(=N)N)C(=O)N[C@@H](CCCNC(=N)N)C(=O)NCCCCCC(=O)N[C@@H](CCCNC(=N)N)C(=O)NCCCCCC(=O)NCCC(=O)O)ccc21 [(RXR)4XB-TAMRA] (5TAMRA-R[Ahx]RR[Ahx]RR[Ahx]RR[Ahx]R[Ahx][βAla]-OH),TAMRA-positive cells (uptake efficiency),100%
